The values that follow come from patent publication US11591323B2, “Muscarinic agonists as non-steroidal and non-opioid analgesics and methods of use thereof” (Barry University, priority 2019, dated 2023).

Common to all, as to format: cell-based
Assay [1] concerns the target T1, M3 muscarinic receptor (Homo sapiens, UniProt P20309). Put plainly: accumulation of IPX, M3 CHO cells transfected with G15 (M3Gq+G15). Also on record: host or cells: CHO cells. How it is done:
(§1) To determine level of cAMP, cells in suspension were pre-incubated for 1 h with 0.4 μM [^3H]adenine, washed, and incubated for 10 min in the presence of isobutylmethylxanthine and 10 μM forskolin. […] Incubation was ended by addition of 0.2 ml of 2.5 M HCl to the samples. Samples were applied to alumina columns (1.5 g of alumina per column), washed with 2 ml ammonium acetate (pH=7.0) and eluted from columns with 4 ml ammonium acetate and measured by liquid scintillation spectrometry. […] The incubation was stopped by addition of 0.5 ml of chloroform methanol HCl mixture (2:1:0.1). After separation of water and organic phases, 0.6 ml of water phase was applied to Dowex columns (1.5 g of Dowex per column), washed by 20 ml of 60 mM ammonium formate/5 mM sodium borate buffer and eluted from columns with 4 ml of 1M ammonium formate/0.1 formic acid buffer and measured by liquid scintillation spectrometry.
(§2) Measurements of the production of cAMP and inositol phosphates: Levels of second messengers cAMP and inositol phosphates were determined in radiochemical chromatography assays as described previously. To determine level of cAMP, cells in suspension were pre-incubated for 1 h with 0.4 μM [^3H]adenine, washed, and incubated for 10 min in the presence of isobutylmethylxanthine and 10 μM forskolin. […] Incubation was ended by addition of 0.2 ml of 2.5 M HCl to the samples. Samples were applied to alumina columns (1.5 g of alumina per column), washed with 2 ml ammonium acetate (pH=7.0) and eluted from columns with 4 ml ammonium acetate and measured by liquid scintillation spectrometry. […] For this purpose, new CHO cell lines stably expressing promiscuous G15 G-protein and M2 or M4 receptor were generated by transfection with pCMV/hygro vector and hygromycin selection. To determine the rate of formation of inositol phosphates IPX, suspended cells were pre-incubated with 0.1 μM [^3H]myo-inositol for 60 min, washed, and incubated with 10 mM LiCl for 15 min. […] The incubation was stopped by addition of 0.5 ml of chloroform methanol HCl mixture (2:1:0.1). After separation of water and organic phases, 0.6 ml of water phase was applied to Dowex columns (1.5 g of Dowex per column), washed by 20 ml of 60 mM ammonium formate/5 mM sodium borate buffer and eluted from columns with 4 ml of 1M ammonium formate/0.1 formic acid buffer and measured by liquid scintillation spectrometry.
(§3) For bi-phasic response, curves were inhibitory and stimulatory phase were fitted separately. Operational Model of Functional Agonism
(§4) [formula] where y is functional response at concentration of tested compound x, EMAX is maximal response of the system, KA is equilibrium dissociation constant and nH is slope factor. Eq. 5 was fitted to data from functional experiments. Eq. 5 was fitted to data by the two-step procedure described earlier. […] In the second step, Eq. 5 with EMAX fixed to the value determined in the first step was fitted to individual experimental data sets. Relative Intrinsic Activity

The target of assay [2] is T2, M2 muscarinic receptor (Homo sapiens, UniProt P08172).
T2 sequence (P08172 1-466): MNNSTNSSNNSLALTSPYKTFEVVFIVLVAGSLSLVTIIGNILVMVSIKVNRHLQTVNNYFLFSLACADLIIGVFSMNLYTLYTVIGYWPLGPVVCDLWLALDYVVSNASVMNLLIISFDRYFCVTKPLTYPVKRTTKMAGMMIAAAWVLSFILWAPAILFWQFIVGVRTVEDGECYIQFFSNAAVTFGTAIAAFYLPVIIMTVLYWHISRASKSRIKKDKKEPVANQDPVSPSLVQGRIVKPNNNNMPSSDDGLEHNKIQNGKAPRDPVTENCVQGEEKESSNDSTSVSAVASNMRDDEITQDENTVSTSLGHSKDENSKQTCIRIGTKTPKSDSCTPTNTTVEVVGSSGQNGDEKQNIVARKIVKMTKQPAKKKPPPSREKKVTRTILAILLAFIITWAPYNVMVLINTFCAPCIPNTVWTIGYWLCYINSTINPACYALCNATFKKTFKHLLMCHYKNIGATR
Put plainly: accumulation of IPX, M2 CHO cells (M2Gq). Also noted: host or cells: CHO cells, stably transfected. The note with it: for RAi / E′MAX / τ / Δlog(τ/KA): M2Gq (↑IPX); for RAi: Table 8, relative to carbachol; for E′MAX / τ: Table 8; for Δlog(τ/KA): Table 8, to carbachol. How it is done: as §1, §2, §3, §4

The test system of assay [3] is ventral tegmental area (M5). The assay can be described thus: accumulation of IPX in dissipated rat ventral tegmental area. The note with it: dissipated rat VTA, in words. How it is done:
Effects of compounds 6A and 7A were then measured ex vivo in dissipated rat tissues (FIG. 5). Accumulation of IPX was measured in dissipated brain cortex (rich in M1 & M3), submaxillary gland (M1 & M3), and ventral tegmental area (M5). Native tissues express about 10-times less muscarinic receptors than CHO cell lines. Accumulation of cAMP was measured in cerebellum (M2) and striatum (M4).
Rat dissipated tissues: Suspension of dissipated tissues from rat brain cortex, cerebellum, striatum, ventral tegmental area (VTA) and submaxillary glands was prepared as described previously in supplementary methods. Adult 8-weeks old male Wistar rats were scarified by cervical dislocation in accordance with current legislative and guidelines under permission of Czech Ministry of Agriculture 16OZ23113/2017-17214. Tissues were dissected immediately. Submaxillary glands were minced by scissors. Tissues were dispersed by incubation for 15 min at 37° C. in KHB supplemented with trypsin and trituration every 5 min. Large undissipated parts were removed by cell mesh. […]
Measurements of the production of cAMP and inositol phosphates: Levels of second messengers cAMP and inositol phosphates were determined in radiochemical chromatography assays as described previously. […] Samples were applied to alumina columns (1.5 g of alumina per column), washed with 2 ml ammonium acetate (pH=7.0) and eluted from columns with 4 ml ammonium acetate and measured by liquid scintillation spectrometry. […] After separation of water and organic phases, 0.6 ml of water phase was applied to Dowex columns (1.5 g of Dowex per column), washed by 20 ml of 60 mM ammonium formate/5 mM sodium borate buffer and eluted from columns with 4 ml of 1M ammonium formate/0.1 formic acid buffer and measured by liquid scintillation spectrometry.
To exclude the possibility that the observed effects of compounds 6A and 7A are the result of overexpression in the heterologous system, functional response to the compounds was measured ex vivo in dissipated native rat tissues. […] Accumulation of cAMP was measured in M2-rich cerebellum and M4-rich striatum.

The target in assay [4] is T1, M3 muscarinic receptor. The assay can be described thus: stimulation of cAMP, M3 CHO cells (M3Gs). Also on record: host or cells: CHO cells, stably transfected. The protocol:
Since activation of phospholipase C (PLC) via M2 and M4 receptors is weak, cells were transferred with G15 G-protein to facilitate coupling.
as §1, §2, §3, §4
Muscarinic receptors are also able to stimulate non-preferential signalling pathways.

The mark [5] stands for this setting: M3Gq + G15 (↑IPX), Table 8, relative to carbachol.
Where [6] appears, read: M3Gq + G15 (↑IPX), Table 8, to carbachol.
[7] abbreviates: M3Gq + G15 (↑IPX), Table 8, read-out: pEC50 (converted).
[8] abbreviates: M3Gq + G15 (↑IPX), Table 8, read-out: pKA (converted).
[9] abbreviates: M3Gs (↑cAMP), Table 8, relative to carbachol.

T1 sequence (P20309 whole entry): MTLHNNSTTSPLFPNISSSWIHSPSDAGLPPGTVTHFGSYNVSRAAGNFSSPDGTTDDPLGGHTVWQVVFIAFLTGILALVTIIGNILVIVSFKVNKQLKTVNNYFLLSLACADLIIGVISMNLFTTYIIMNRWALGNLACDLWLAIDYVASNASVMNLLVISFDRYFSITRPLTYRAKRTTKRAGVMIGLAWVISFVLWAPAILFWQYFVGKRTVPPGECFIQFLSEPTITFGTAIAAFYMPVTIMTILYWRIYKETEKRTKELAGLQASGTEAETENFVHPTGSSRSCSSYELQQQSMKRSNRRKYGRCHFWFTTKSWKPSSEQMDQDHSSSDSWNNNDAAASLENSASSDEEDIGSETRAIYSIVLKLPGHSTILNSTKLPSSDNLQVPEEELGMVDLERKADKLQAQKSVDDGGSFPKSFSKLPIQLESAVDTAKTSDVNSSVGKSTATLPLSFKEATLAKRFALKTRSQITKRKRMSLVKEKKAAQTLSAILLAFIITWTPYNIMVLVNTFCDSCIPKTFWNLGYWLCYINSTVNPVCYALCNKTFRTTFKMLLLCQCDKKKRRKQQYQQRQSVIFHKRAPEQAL

Turning to `C1=CCN(Cc2cccs2)CC1.Cl` [Compound 6A, 1-[(thiophen-2-yl)methyl]-1,2,3,6-tetrahydropyridin-1-ium chloride], in assay [1] (M3Gq + G15 (↑IPX), Table 8), the “E′MAX” value was 2.5 ± 0.2 fold over basal. Further, in assay [1] (M3Gq + G15 (↑IPX), Table 8), the τ came out at 0.06 ± 0.01. Further, the RAi was 0.0058 ± 0.0005 in assay [1] (setting [5]), 0 in assay [2] and 0 in assay [4] (setting [9]). For the same molecule, the “Δlog(τ/KA)” value in assay [1] (setting [6]) is 2.23 ± 0.23. Also, the EC50 in assay [1] (setting [7]) was 5.01 µM. The Kd in assay [1] (setting [8]) is 5.01 µM. Moreover, the “accumulation of IPX” value in assay [3] was “negligible increase in IPX”.
As to `C[N+]1(Cc2cccs2)CC=CCC1.[I-]` (stereo not shown) [Compound 7A, 1-methyl-1-[(thiophen-2-yl)methyl]-1,2,3,6-tetrahydropyridin-1-ium iodide], in assay [1] (M3Gq + G15 (↑IPX), Table 8), the “E′MAX” value came out at 3.0 ± 0.3 fold over basal. In addition, in assay [1] (M3Gq + G15 (↑IPX), Table 8), the τ is 0.08 ± 0.01. The RAi in assay [1] (setting [5]) was 0.011 ± 0.001; in assay [2], 0; in assay [4] (setting [9]), 0. The “Δlog(τ/KA)” value in assay [1] (setting [6]) stood at 1.94 ± 0.20. For the same molecule, the EC50 in assay [1] (setting [7]) was 3.16 µM. Moreover, the Kd in assay [1] (setting [8]) is 3.16 µM. For the same molecule, the “accumulation of IPX” value in assay [3] was “negligible increase in IPX”.
As for `C[N+](C)(C)CCOC(N)=O` [carbachol, reference compound], in assay [2], the “E′MAX” value was determined as 1.91 ± 0.07 fold over basal, the τ came out at 0.2 ± 0.1 and the “Δlog(τ/KA)” value worked out at 0. Besides, the “accumulation of IPX” value in assay [3] is reported as “profound accumulation of IPX”.
For `O=C1CCCN1CC#CCN1CCCC1` [oxotremorine, reference compound], in assay [1], the EC50 was 0.1 µM, the “E′MAX” value stood at 22 ± 2 fold over basal, the Kd was 0.398 µM and the RAi came out at 4.14 ± 0.38. In assay [1], the “Δlog(τ/KA)” value was −0.62 ± 0.06 and the τ came to 2.9 ± 0.3. Moreover, in assay [2], the EC50 is 0.209 µM, the Kd was 0.251 µM, the “E′MAX” value turned out to be 1.60 ± 0.05 fold over basal and the τ is 0.2 ± 0.1. Besides, in assay [2], the RAi was 3.08 ± 0.28 and the “Δlog(τ/KA)” value was −0.49 ± 0.05. For the same molecule, in assay [4], the EC50 was 2.63 µM, the “E′MAX” value is on record as 1.9 ± 0.1 fold increase, the Kd is 3.98 µM and the RAi was 4.23 ± 0.28. In assay [4], the “Δlog(τ/KA)” value is −0.63 ± 0.06 and the τ worked out at 0.48 ± 0.05.
